Structures can show the parent of a compound that is named as a salt.
Tests used:
[1] = target: T1, phenylethanolamine N-methyltransferase (Oryctolagus cuniculus, UniProt G1TT82); assay: inhibition of phenylethanolamine N-methyltransferase in vitro (assay procedure of Pendleton and Snow); assay type: biochemical; settings: read-out: inhibit phenylethanolamine N-methyltransferase; for inhibition at 100 µM: concentration 1.0 x 10-^4 (unit inferred); for inhibition at 1 µM: concentration 1.0 x 10-^6 (unit inferred)
T1 sequence (G1TT82 1-286): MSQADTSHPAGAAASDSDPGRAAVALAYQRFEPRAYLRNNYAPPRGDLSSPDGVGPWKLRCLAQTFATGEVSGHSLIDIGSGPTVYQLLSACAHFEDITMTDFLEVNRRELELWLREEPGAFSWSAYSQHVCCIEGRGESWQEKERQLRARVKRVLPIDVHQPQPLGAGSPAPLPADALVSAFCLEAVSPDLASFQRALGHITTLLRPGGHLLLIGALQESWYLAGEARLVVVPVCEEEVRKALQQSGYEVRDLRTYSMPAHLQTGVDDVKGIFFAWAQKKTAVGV

PNMT = assay: in vivo PNMT inhibition in mice: adrenal epinephrine/norepinephrine ratio, measured fluorometrically; settings: male mice, oral, 50 mg/kg per day, twice a day for seven days, dosed again next morning, sacrificed two hours later; vehicle control 2.5 + 0.23; p <.01
Experimental: Male mice were dosed orally with either drug or vehicle control on a twice-a-day basis for seven consecutive days. On the morning of the next day they were again dosed and two hours later sacrificed by decapitation. The adrenal glands were then removed and analyzed fluorometrically for both epinephrine and norepinephrine content.

| inhibition at 100 µM [1] | inhibition at 1 µM [1] | Compound | adrenal epinephrine/norepinephrine ratio (PNMT) |
| --- | --- | --- | --- |
| 99% | 91% | c1cc2nnsc2c2c1CCNC2 [[1,2,3]thiadiazolo[4,5-h]-6,7,8,9-tetrahydroisoquinoline hydrochloride] | – |
| 99% | 94% | c1cc2snnc2c2c1CCNC2 [[1,2,3]thiadiazolo[5,4-h]-6,7,8,9-tetrahydroisoquinoline hydrochloride] | 1.3 ± 0.08 |

Reference: patent EP0023761B1, “Tetrahydroisoquinoline derivatives, process for preparing them and compositions containing them” (priority 1979, dated 1981)
